# Assay results as given in patent publication US11667602B2, “Compounds and their use” (AstraZeneca AB, priority 2020, dated 2023).
# Where two headings read alike, the source gives them in different places.
# Target: T1, human RXFP1 (Homo sapiens, UniProt Q9HBX9)
# T1 sequence (Q9HBX9 1-757): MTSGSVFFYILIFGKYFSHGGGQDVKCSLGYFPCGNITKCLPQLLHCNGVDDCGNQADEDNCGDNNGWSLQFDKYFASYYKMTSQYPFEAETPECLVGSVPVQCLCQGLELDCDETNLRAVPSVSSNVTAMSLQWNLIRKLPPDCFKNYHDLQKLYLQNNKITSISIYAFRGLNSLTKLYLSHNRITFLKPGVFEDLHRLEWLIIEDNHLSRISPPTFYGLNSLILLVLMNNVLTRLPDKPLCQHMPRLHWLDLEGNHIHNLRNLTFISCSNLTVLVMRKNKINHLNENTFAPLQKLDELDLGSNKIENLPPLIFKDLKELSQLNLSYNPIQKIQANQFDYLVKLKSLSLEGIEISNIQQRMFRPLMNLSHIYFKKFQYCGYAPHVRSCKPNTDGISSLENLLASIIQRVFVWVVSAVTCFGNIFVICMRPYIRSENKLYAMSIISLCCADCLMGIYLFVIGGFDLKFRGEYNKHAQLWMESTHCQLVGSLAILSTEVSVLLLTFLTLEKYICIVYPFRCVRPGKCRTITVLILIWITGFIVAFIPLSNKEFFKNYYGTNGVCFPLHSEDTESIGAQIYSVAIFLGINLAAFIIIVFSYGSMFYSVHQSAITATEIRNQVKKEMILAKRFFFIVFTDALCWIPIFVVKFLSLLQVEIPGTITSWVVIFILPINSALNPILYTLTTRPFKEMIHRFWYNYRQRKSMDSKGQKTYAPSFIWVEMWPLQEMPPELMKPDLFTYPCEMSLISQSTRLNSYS
# Test: RXFP1 Hu cAMP (Test A)
# Type: cell-based
# Set-up: expressed in transfected cells; host or cells: Jump-In T-REx CHO-K1 cells (ThermoFisher), induced with 10 ng/ml doxycycline for 24 h
# Summary of the method: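 Competitive HTRF cAMP readout (2 h, room temperature) in CHO-K1 cells stably expressing human RXFP1, induced with 10 ng/ml doxycycline for 24 h; IBMX 0.5 mM final.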
# [1] = RXFP1 Hu cAMP, read-out: Test A EC50
Molecule,Test A Sinf (RXFP1 Hu cAMP) [%],EC50 [1] [nM],"EC50 (Test A EC50, RXFP1 Hu cAMP) [nM]"
CCc1cc(OC)c(C(=O)N[C@@H]2[C@H]3CC[C@H](C3)[C@@H]2C(=O)NC23CC(F)(C2)C3)cc1O[C@H]1CC[C@@](C)(C(=O)O)CC1 [Example 383],89,120,
COc1cc(F)c(O[C@H]2CC[C@@](C)(C(=O)O)CC2)cc1C(=O)N[C@@H]1[C@@H]2CC[C@@H](C2)[C@@H]1C(=O)NCC(C)(C)C [Example 370],102,,24
"COc1cc(F)c(-c2ccc(CCS(N)(=O)=O)cc2)cc1C(=O)N[C@H]1[C@H]2CC[C@H](C2)[C@H]1C(=O)Nc1cccc(S(=O)(=O)C(F)(F)F)c1 (single isomer, unassigned) [Example 327]",,> 40000,
CCC(C)(C)NC(=O)[C@H]1[C@@H]2CC[C@@H](C2)[C@H]1NC(=O)c1cc(O[C@H]2CC[C@@](C)(C(=O)O)CC2)c(C#N)cc1OC [Example 126],98,47,
COc1cc(F)c(-c2c[nH]c(C(=O)O)c2)cc1C(=O)N[C@H]1[C@@H](C(=O)Nc2cccc(S(=O)(=O)C(F)(F)F)c2)[C@@H]2C=C[C@H]1C2 (racemic) [Example 229],55,3300,
CC1(CNC(=O)[C@H]2[C@@H]3CC[C@@H](C3)[C@H]2NC(=O)c2ccc(F)c(O[C@H]3CC[C@@](C)(C(=O)O)CC3)c2)CCC1 [Example 400],91,,180
COc1cc(F)c(-c2ccc([C@@H](C(=O)O)N(C)C)cc2)cc1C(=O)N[C@@H]1[C@H]2CC[C@H](C2)[C@@H]1C(=O)Nc1cccc(S(=O)(=O)C(F)(F)F)c1 (racemic) [Example 295],100,500,
"COc1cc(C#N)c(O[C@H]2CC[C@@](C)(C(=O)O)CC2)cc1C(=O)NC1C2CCC(CC2)C1C(=O)NCC1(C)CCC1 (single isomer, unassigned) [Example 538, (1R,4s)-4-(2-Cyano-4-methoxy-5-(((2S*,3R*)-3-(((1-methylcyclobutyl)methyl)carbamoyl)bicyclo[2.2.2]octan-2-yl)carbamoyl)phenoxy)-1-methylcyclohexane-1-carboxylic acid]",100,11000,
"COc1cc(F)c(-c2cnc([C@@H]3C[C@H]3C(=O)O)cn2)cc1C(=O)N[C@@H]1[C@H]2CC[C@H](C2)[C@@H]1C(=O)Nc1cccc(S(=O)(=O)C(F)(F)F)c1 (single isomer, unassigned) [Example 264, (1R*,2R*)-2-(5-(2-Fluoro-4-methoxy-5-(((1S,2R,3S,4R)-3-((3-((trifluoromethyl)sulfonyl)phenyl)carbamoyl)bicyclo[2.2.1]heptan-2-yl)carbamoyl)phenyl)pyrazin-2-yl)cyclopropane-1-carboxylic acid]",101,82,
COc1cc(F)c(-c2ccc(C(=O)O)s2)cc1C(=O)N[C@H]1[C@@H](C(=O)Nc2cccc(S(=O)(=O)C(F)(F)F)c2)[C@@H]2C=C[C@H]1C2 (racemic) [Example 285],75,300,
COc1cc(F)c(OCC23CCC(C(=O)O)(CC2)CC3)cc1C(=O)N[C@@H]1[C@H]2CC[C@H](C2)[C@@H]1C(=O)Nc1cccc(S(=O)(=O)C(F)(F)F)c1 [Example 441],,> 40000,
COc1cc(F)c(O[C@H]2CC[C@@](C)(C(=O)O)CC2)cc1C(=O)N[C@@H]1[C@H]2CC[C@H](C2)[C@@H]1C(=O)NCC(F)(F)C(F)(F)F [Example 618],93,100,
"COc1cc(F)c(O[C@H]2CC[C@@](O)(C(=O)O)CC2)cc1C(=O)N[C@@H]1[C@H]2CC[C@H](C2)[C@@H]1C(=O)NCC1(C)CCC1 [Example 507, (1R,4r)-4-(2-Fluoro-4-methoxy-5-(((1S,2R,3S,4R)-3-(((1-methylcyclobutyl)methyl)carbamoyl)bicyclo[2.2.1]heptan-2-yl)carbamoyl)phenoxy)-1-hydroxycyclohexane-1-carboxylic acid]",118,540,
"COc1cc(F)c(O[C@H]2CC[C@@](CO)(C(=O)O)CC2)cc1C(=O)NC1CC(OC)CC1C(=O)NCC(C)(C)C (single isomer, unassigned) [Example 548, (1R,4s)-4-(2-Fluoro-4-methoxy-5-(((1S*,2R*,4R*)-4-methoxy-2-(neopentylcarbamoyl)cyclopentyl)carbamoyl)phenoxy)-1-(hydroxymethyl)cyclohexane-1-carboxylic acid]",117,21000,
"COc1cc(C#N)c(O[C@H]2CC[C@@](C)(C(=O)O)CC2)cc1C(=O)N[C@H]1[C@@H](C(=O)NCC2(C)CCC2)[C@H]2C=C[C@@H]1CC2 (racemic) [Example 469, (1R,4s)-4-(2-Cyano-4-methoxy-5-(((1RS,2SR,3RS,4SR)-3-(((1-methylcyclobutyl)methyl)carbamoyl)bicyclo[2.2.2]oct-5-en-2-yl)carbamoyl)phenoxy)-1-methylcyclohexane-1-carboxylic acid]",99,36,
"(1R,4s)-4-(2-Cyano-4-fluoro-5-(((2S*,3R*)-3-(((1-methylcyclobutyl)methyl)carbamoyl)bicyclo[2.2.2]octan-2-yl)carbamoyl)phenoxy)-1-methylcyclohexane-1-carboxylic acid [Example 589]",83,,
CCCCCCNC(=O)[C@H]1[C@@H]2CC[C@@H](C2)[C@H]1NC(=O)c1cc(O[C@H]2CC[C@@](C)(C(=O)O)CC2)c(C#N)cc1OC [Example 117],100,110,
COc1cc(F)c(O[C@H]2CC[C@@](C)(C(=O)O)CC2)cc1C(=O)N[C@@H]1[C@H]2CC[C@H](C2)[C@@H]1C(=O)NCC1(C(F)(F)F)CC1 [Example 614],96,,
"COc1cc(F)c(OC2CCC(O)(C(=O)O)CC2)cc1C(=O)NC1C2CCC(C2)C1C(=O)Nc1cccc(S(=O)(=O)C(F)(F)F)c1 [Example 582, (1R,4r)-4-(2-Fluoro-4-methoxy-5-(((1R*,2R*,3S*,4S*)-3-((3-((trifluoromethyl)sulfonyl)phenyl)carbamoyl)bicyclo[2.2.1]heptan-2-yl)carbamoyl)phenoxy)-1-hydroxycyclohexane-1-carboxylic acid]",104,29,
COc1cc(F)c(O[C@H]2CC[C@@](C)(C(=O)O)CC2)cc1C(=O)N[C@@H]1COC[C@@H]1C(=O)Nc1ccc(F)c(S(F)(F)(F)(F)F)c1 (racemic) [Example 344],93,34,
"COc1cc(F)c(O[C@H]2CC[C@@H](S(N)(=O)=O)CC2)cc1C(=O)N[C@@H]1[C@@H]2CC[C@@H](C2)[C@@H]1C(=O)Nc1cccc(S(=O)(=O)C(F)(F)F)c1 [Example 463, (1S,2S,3R,4R)-3-(4-Fluoro-2-methoxy-5-(((1s,4S)-4-sulfamoylcyclohexyl)oxy)benzamido)-N-(3-((trifluoromethyl)sulfonyl)phenyl)bicyclo[2.2.1]heptane-2-carboxamide]",111,340,
COc1cc(C#N)c(O[C@H]2CC[C@@](C)(C(=O)O)CC2)cc1C(=O)N[C@@H]1[C@H]2CC[C@H](C2)[C@@H]1C(=O)N[C@H](C)C1CCCCC1 [Example 120],95,,
